One series deals with P38 pathway. As to the kind of experiment: Western blot for activation of p38 pathway in rat aortic rings. The settings on record: 2.7 μM CFZ 1.5 hours, with or without indomethacin plus LNAME (FIG. 7). How it is done:
Aortas were isolated from 8-10 week old CD® (Sprague Dawley) rats (from Charles River Laboratories) in an ice-cold, oxygenated (95% O2, 5% CO2) Krebs-Henseleit buffer. The aortas were then carefully cleaned to remove perivascular fat and cut into 2-mm rings that were mounted between two stainless steel wires in the myograph chamber containing 8 mL of Krebs-Henseleit buffer in 95% O2 and 5% CO2 at 37° C. Rings were stretch until a final stretch of 10 mN (Newton) was reached and incubated for 30 mins for equilibration. The rings were constricted with 8 mL of 80 mM KPSS for 15 minutes, followed by 3 washes with the Krebs-Henseleit buffer until the force returned to the baseline stretch. The aorta were then treated for one of the following experiments: • For protein expression studies the aortic rings were pre-treated with 100 μM N(gamma)-nitro-L-arginine methyl ester (L-NAME; Sigma-Aldrich) and 10 μM indomethacin for 10 minutes prior to the pre-incubation with CFZ (Amgen Inc.) for 1.5 hours. The rings were then isolated for protein expression analysis. […]

Series [1] relates to rat aortic rings. As to the kind of experiment: Angiotensin induced contraction (AUC) of rat aortic rings. The settings on record: LNAME+indomethacin, 2.7 μM CFZ 1.5 hour, 30 nM Angiotensin 30 min (FIG. 11).
Method: Following the two incubation the rings were treated with either vehicle or 2.7 μM CFZ for further 1.5 hours before addition of 30 nM Angiotensin for 30 min. Angiotensin induced transient contraction which returned to the baseline in 30 mins. Area Under the Curve (AUC) of angiotensin induced contraction was measured.
Aortic rings were incubated for 10 min with 100 μM LNAME+10 μM indomethacin (endothelium derived relaxing agents blockers) for 10 mins followed by addition of 10 μM SB 203580 (p38 inhibitor) or PF3644022 (MAPKAPK-2 inhibitor) in some rings for 10 more mins as indicated. This was followed by addition of 2.7 μM CFZ in some rings as indicated for 1.5 hour. 30 nM Angiotensin was added for 30 min. Angiotensin induced transient contraction which returned to the baseline in 30 mins.
In a further series the test system is eNOS. Kind of series: Western blot of phosphorylated eNOS and eNOS in mouse endothelial cells. It is filed as cell-based. The conditions noted are these: different concentrations of CFZ (FIG. 3A). How it is done: Protein levels of eNOS were unable to be assessed in rat endothelial cells; therefore, endothelial cells from mice were used. Mouse coronary endothelial cells (Cell Biologics) at passage 7 were seeded at 50,000 cells per well with 200 μL of endothelial cell media (Cell Biologics) in 96-well plates for 24 hours at 37° C. in 5% CO2. Some cells were pretreated with 100 μM L-NAME for 1 hour before adding 10 μM ACh. Cells were further treated with 0.3, 0.9, or 2.7 μM of CFZ or its vehicle for an additional 48 hours. The supernatant was collected and the amount of NO was assessed following the manufacturer's protocol for the colorimetric Nitric Oxide Assay Kit (Abcam, Cambridge, MA).
(§1) Each cell pellet was lysed in 50 to 70 μL RIPA buffer (Cell Signaling Technology, Danvers, MA) with the Halt™ protease and phosphatase inhibitor cocktail (Thermo Fisher Scientific). Lysates were quantitated and loaded onto the Li-COR Western blot system. Antibodies specific to phosphorylated eNOS and eNOS from Thermo Fisher Scientific, anti-Guanylyl Cyclase β1 (ER-19) (Sigma-Aldrich), and β-Actin (Sigma-Aldrich) were diluted 1:1000 for Western blot. Antibodies specific to p-VASP, VASP, and GADPH-HRP were purchased from Cell Signaling Technology.
In general terms: Immunoblotting shows a protein as a band on a membrane.

Another series relates to sGC-β. As to the kind of experiment: Western blot of sGC-β in rat aortic smooth muscle cells. The settings on record: CFZ for more than 12 hours (FIG. 4A). It is filed as cell-based. Here is the method:
as §1

For series [2], the system named is rat aortic rings. As to the kind of experiment: Sodium nitroprusside-induced relaxation of phenylephrine-precontracted rat aortic rings.
Method: An isometric myograph (DMT 620M) was used for ex vivo measurement of vascular function. Eight-to 10-week old Sprague Dawley rats (purchased from Charles River Laboratories, Wilmington, MA) were first anesthetized with 3% isoflurane and then euthanized using inhaled desflurane. The aortas were isolated in an ice-cold, oxygenated (95% O2, 5% CO2) Krebs-Henseleit buffer (118.3 mM NaCl, 4.7 mM KCl, 1.2 mM MgSO4, 1.2 mM KH2PO4, 2.5 mM CaCl2, 25 mM NaHCO3, and 11.0 mM glucose; purchased from Sigma-Aldrich, St. Louis, MO). The thoracic aorta was carefully cleaned to remove perivascular fat and cut into 2-mm rings that were mounted between two stainless steel wires in the myograph chamber containing 8 mL of Krebs-Henseleit buffer in 95% O2 and 5% CO2 at 37° C. First, the rings were equilibrated in the chamber for 20 minutes, followed by a gradual increase of mechanical stretch until a final stretch of 10 mN (Newton) was reached. After an additional incubation with fresh buffer for 30 minutes, the rings were constricted with 8 mL of 80 mM KPSS (43 mM NaCl, 80 mM KCl, 2.5 mM CaCl2, 1.2 mM MgSO4, 1.2 mM KH2PO4, 25.0 mM NaHCO3, and 11.0 mM glucose) for 15 to 20 minutes, followed by 3 washes with the Krebs-Henseleit buffer until the force returned to the baseline stretch. The tension of the aortic rings was continuously measured with the Lab Chart 7 data acquisition system (ADInstruments, Colorado Springs, CO). In Some of the experiments the aortic rings were pre-treated with 100 μM N(gamma)-nitro-L-arginine methyl ester (L-NAME; Sigma-Aldrich) and 10 μM indomethacin for 10 minutes prior to the pre-incubation with CFZ (Amgen Inc.) for 2 hours. After an additional incubation with fresh buffer for 30 minutes, the rings were constricted with 8 mL of 80 mM KPSS (43 mM NaCl, 80 mM KCl, 2.5 mM CaCl2, 1.2 mM MgSO4, 1.2 mM KH2PO4, 25.0 mM NaHCO3, and 11.0 mM glucose) for 15 to 20 minutes, followed by 3 washes with the Krebs-Henseleit buffer until the force returned to the baseline stretch. The tension of the aortic rings was continuously measured with the Lab Chart 7 data acquisition system (ADInstruments, Colorado Springs, CO).
For assessment of the effect of CFZ on vascular relaxation, the pre-treated aortic rings were incubated with 1 μM PE for 20 minutes to induce contraction. For experiments involving sildenafil and tadalafil, a 10-minute pre-treatment with 30 nM of these smooth muscle relaxants was done prior to the incubation with CFZ. After reaching a stable contraction, ACh, sodium nitroprusside (SNP), nifedipine, riociguat, or cinaciguat was added to the chamber at an increasing concentration from 100 pM to 10 μM; each stepwise concentration increase was added after the response to the current concentration reached a plateau. The relaxation was continuously measured and plotted as percent relaxation normalized to the response with 1 μM PE.
Series [3] in a line: Highest applicable CFZ concentration in the myograph chamber (saturation, precipitation). The settings on record: oxygenated myograph chamber, Krebs-Henseleit buffer. Type of series: physicochemical.
The test system of another series is mice. The conditions noted are these: depending on dosage and administration schedule; cited from earlier work.

These results are taken from patent publication US20260144798A1, “Disruption of Vascular Smooth Muscle Relaxation by Carfilzomib May be the Primary Reason for CFZ-Induced Vascular Dysfunction” (AMGEN INC., priority 2019, published 2026).

The structures appear in SMILES notation.

With `CC(C)C[C@H](NC(=O)[C@H](CCc1ccccc1)NC(=O)CN1CCOCC1)C(=O)N[C@@H](Cc1ccccc1)C(=O)N[C@@H](CC(C)C)C(=O)[C@@]1(C)CO1` [CFZ, carfilzomib], the “activation of p38 pathway” value in the series on P38 pathway is “caused activation of P38 pathway with or without endothelium dependent relaxing factors”. In addition, the “angiotensin induced contraction, area under the curve” value with rat aortic rings [1] was “increased angiotensin induced contraction”. Moreover, in the series on eNOS, the “level of phosphorylated eNOS” value is listed as “increasing level of phosphorylated eNOS corresponded to the increasing CFZ concentration” and the “protein expression level of total eNOS” value is reported as “remained the same”. The sGC-β protein level entry in the series with sGC-β is given as “increased with increasing exposure to CFZ”. Further, in the series with rat aortic rings [2] (FIG. 5A experiment, vehicle alone 7.2×10^−9), the “EC50 for SNP-induced relaxation, CFZ alone” value is listed as 1.7×10^−8. In the series on rat aortic rings [2] (in the presence of CFZ 2.7 μM, vehicle alone 1.8×10^−8), the “EC50 for SNP-induced relaxation in the presence of L-NAME and indomethacin” value is 4.3×10^−8. The “effect on SNP-induced relaxation” value in the series on rat aortic rings [2] (rings pretreated with CFZ, increasing SNP (FIG. 2B)) is given as “appeared to interfere with SNP-induced relaxation”. The highest CFZ concentration that could be applied; further increase gave saturated solution and precipitation in series [3] worked out at 2.7 µM. In addition, the “effect on AMPKα/mTORC1 and PI3K/Akt/eNOS pathways” value with mice is recorded as “inhibit AMPKα/mTORC1 pathways”.
